Here are results for two molecules from patent publication US11918666B2, “Topical formulations comprising strontium and methylsulfonylmethane (MSM) and methods of treatment” (NOON AESTHETICS M.R LTD., priority 2018, dated 2024).

Where two headings read alike, the source gives them in different places.

In one data set the target is tyrosinase (Homo sapiens, UniProt P14679). Conditions: higher than beta-arbutin; cited from earlier work.
In another data set the test system is skin. Conditions: rabbits.

Sequence of tyrosinase (P14679 19-529): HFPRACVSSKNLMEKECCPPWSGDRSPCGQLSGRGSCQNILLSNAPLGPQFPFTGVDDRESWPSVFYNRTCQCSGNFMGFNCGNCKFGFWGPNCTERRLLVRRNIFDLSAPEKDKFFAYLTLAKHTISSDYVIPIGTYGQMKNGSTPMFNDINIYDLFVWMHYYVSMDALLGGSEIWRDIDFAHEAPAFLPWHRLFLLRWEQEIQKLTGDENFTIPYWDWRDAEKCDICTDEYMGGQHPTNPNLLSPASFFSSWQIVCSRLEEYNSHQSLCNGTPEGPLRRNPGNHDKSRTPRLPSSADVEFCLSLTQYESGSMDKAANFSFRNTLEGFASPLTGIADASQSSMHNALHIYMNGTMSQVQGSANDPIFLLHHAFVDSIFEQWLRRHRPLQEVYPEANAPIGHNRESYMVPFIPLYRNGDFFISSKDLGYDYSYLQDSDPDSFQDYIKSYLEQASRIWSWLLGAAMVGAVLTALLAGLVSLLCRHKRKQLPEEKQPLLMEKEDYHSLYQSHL

Take alpha-arbutin [alpha arbutin]: the “stability and efficiency relative to beta-arbutin” value on tyrosinase is 50 times.

On to `O=C(O)CO` [glycolic acid], for which the skin irritant effect result with skin (glycolic acid applied alone at 10% w/w) is listed as “mild skin irritant effect”; in the data set with skin (glycolic acid applied alone at 30% or 40% w/w) it was “moderate skin irritant”.
